Measured values reported in patent publication US20230365571A1, “COMPOUNDS AND COMPOSITIONS AS Sppl2a INHIBITORS” (Novartis AG, priority 2020, published 2023).

Experiments:
Format in all cases: cell-based
Sppl2a CD74 = target: T1, Sppl2a CD74 (Mus musculus, UniProt Q9JJF9); experiment: CD74/p8 mouse whole blood assay, flow cytometry format; details: Balb/c mouse whole blood, 5 h, CD74 signal on gated live B cells
T1 construct: Mouse whole blood Balb/c mice (sodium citrate) was ordered by Bioreclamation LLC; tissue Bioreclamation LLC
T1 sequence (Q9JJF9 26-523): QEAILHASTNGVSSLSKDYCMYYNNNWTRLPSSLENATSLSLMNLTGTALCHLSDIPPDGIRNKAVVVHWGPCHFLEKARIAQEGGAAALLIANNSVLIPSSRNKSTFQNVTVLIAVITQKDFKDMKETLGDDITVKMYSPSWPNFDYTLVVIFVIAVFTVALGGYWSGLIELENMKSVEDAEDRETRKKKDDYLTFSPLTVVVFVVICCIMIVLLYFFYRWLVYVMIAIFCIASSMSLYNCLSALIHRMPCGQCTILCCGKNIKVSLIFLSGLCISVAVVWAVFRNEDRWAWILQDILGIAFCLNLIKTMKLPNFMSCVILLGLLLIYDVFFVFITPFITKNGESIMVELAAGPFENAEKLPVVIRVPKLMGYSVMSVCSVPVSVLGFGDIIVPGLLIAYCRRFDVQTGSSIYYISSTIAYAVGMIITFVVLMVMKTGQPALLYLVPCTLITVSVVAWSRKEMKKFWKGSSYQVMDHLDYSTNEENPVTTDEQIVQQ
Method: CD74/p8 Mouse Whole Blood Assay: Flow Cytometry Format
Mouse whole blood Balb/c mice (sodium citrate) was ordered by Bioreclamation LLC; USA. The blood was used the next day upon receipt (stored at 4° C.). 100 μL blood were transferred in 96 well format plate, where compounds, an 11 point dilutions down from 30 μM, to be tested were previously deposited. The plate was incubated for 5 h in the incubator at 37° C., 5% CO2 under continuous motion. After the incubation the blood was diluted with RBC Lysis Buffer (Amined; Cat. Nr 3-13F00-H or BD; Cat. Nr 555899). The solution was mixed by pipetting and incubated 10 min in the 37° C. incubator. The white blood cells were sedimented for 3 min at 2000 rpm. After removing the supernatant the cell pellet was resuspended and washed twice in RCB Buffer and kept≈ 5 min at room temperature, followed by a centrifugation for 2 min at 2000 rpm. The cell pellet was then resuspend in D-PBS and centrifuged twice. Finally, the cells were taken up in of D-PBS/0.5% inactivated fetal bovine serum/2 mM EDTA. The cell suspension was treated with Live/Dead fixable stain (Life Technologies, >470 nm version), B cells were identified by surface staining with an anti-B220 antibody coupled to APC fluorofor. After staining, the cells were extensively washed with PBS. The cells were permeabilized and fixed in FACS lysing buffer; (BD; #349202, dil 1:10 in water) and labelled with an anti CD74, FITC labelled antibody, washed once more with diluted FACS lysing buffer and spin down. The cell pellet was washed with D-PBS/0.5% inactivated fetal bovine serum/2 mM EDTA and PBS prior to the analysis in a flow cytometer. The compound concentrations were plotted against the intensity (medium fluorescence intensity) of the CD74 signal on the gated life B cell and IC50 were determined by fitting data for a 11 concentrations dose response.

human SPPL2a [1] = target: T2, human SPPL2a (Homo sapiens, UniProt Q8TCT8); experiment: Sppl2a TL (translocation) imaging assay in U-2 OS cells; set-up: expressed in transfected cells; details: U-2 OS cells expressing human SPPL2a and EGFP-TNFα(aa1-76) NTF substrate; 24 h
T2 sequence (Q8TCT8 26-520): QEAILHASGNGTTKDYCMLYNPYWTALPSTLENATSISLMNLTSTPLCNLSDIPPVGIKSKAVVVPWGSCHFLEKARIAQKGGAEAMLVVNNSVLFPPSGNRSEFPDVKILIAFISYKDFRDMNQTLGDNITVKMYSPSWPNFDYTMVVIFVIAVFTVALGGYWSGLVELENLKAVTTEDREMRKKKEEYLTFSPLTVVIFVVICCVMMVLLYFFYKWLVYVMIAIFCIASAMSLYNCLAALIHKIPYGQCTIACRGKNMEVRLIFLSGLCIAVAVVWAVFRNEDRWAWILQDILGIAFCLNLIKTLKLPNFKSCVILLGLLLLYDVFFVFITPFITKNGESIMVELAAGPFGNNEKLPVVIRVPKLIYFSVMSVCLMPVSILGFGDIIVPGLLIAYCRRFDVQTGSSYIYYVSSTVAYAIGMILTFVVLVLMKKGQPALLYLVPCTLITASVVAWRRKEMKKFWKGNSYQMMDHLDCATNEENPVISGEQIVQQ
Method in brief: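 U-2 OS cells stably expressing human SPPL2a plus doxycycline-induced EGFP-TNFα(aa1-76) NTF, treated 24 h at 37 °C with inhibitor (100 μM–1 nM, 11 points, 0.9% DMSO, 5 μg/mL doxycycline). Imaging of nuclear-minus-cytoplasmic EGFP intensity; % inhibition versus 0.5 μM LY-411,575 and DMSO, IC50 by nonlinear regression; CC50 from cell count.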

human SPPL2a [2] = target: T2, human SPPL2a; experiment: Sppl2a RGA (reporter gene assay) in HEK293 cells; set-up: expressed in transfected cells; host or cells: HEK293 (transient); details: NT-TNF-VP16-Gal4 substrate, Gal4-luciferase reporter, 24 h
Method in brief: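 Cleavage of a membrane-bound TNF N-terminal–VP16-Gal4 substrate drives Gal4-luciferase expression in transiently transfected HEK293 cells also expressing human SPPL2a. Compounds incubated 24 h, 37 °C, 5% CO2; luminescence read, normalized and plotted against concentration for IC50.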

In the case of `Cc1nc(C(=O)NCC(F)F)sc1C(=O)NC[C@@H](C)C(=O)N[C@@H]1C(=O)N2CCCN2Cc2ccccc21` [Example 21, N^2-(2,2-Difluoroethyl)-4-methyl-N^5-((R)-2-methyl-3-oxo-3-(((S)-11-oxo-2,3,10,11-tetrahydro-1H,5H-benzo[d]pyrazolo [1,2-a][1,2]diazepin-10-yl)amino)propyl) thiazole-2,5-dicarboxamide], the IC50 (Sppl2a CD74) is reported as 5940 nM, the IC50 (human SPPL2a [1]) is reported as 13 nM and the IC50 (human SPPL2a [2]) is reported as 7 nM.

Work on `Cc1cc(-c2cc(NC(=O)C[C@@H](C)C(=O)N[C@@H]3C(=O)N4CCCN4Cc4ccccc43)n(C)n2)no1` [Example 80, (R)-2-Methyl-N^4-(1-methyl-3-(5-methylisoxazol-3-yl)-1H-pyrazol-5-yl)-N^1-((S)-11-oxo-2,3,10,11-tetrahydro-1H,5H-benzo[d]pyrazolo [1,2-a][1,2]diazepin-10-yl)succinamide] yielded an IC50 (Sppl2a CD74) of 910 nM, an IC50 (human SPPL2a [1]) of 7 nM and an IC50 (human SPPL2a [2]) of 8 nM.

Compound `CCNC(=O)c1nc(C)c(C(=O)NC[C@@H](CC)C(=O)N[C@@H]2C(=O)N3CCCN3Cc3ccccc32)s1` [Example 10, N^2-Ethyl-4-methyl-N^5-((R)-2-(((S)-11-oxo-2,3,10,11-tetrahydro-1H,5H-benzo[d]pyrazolo [1,2-a][1,2]diazepin-10-yl)carbamoyl)butyl) thiazole-2,5-dicarboxamide] has an IC50 (Sppl2a CD74) of 289 nM, an IC50 (human SPPL2a [1]) of 4 nM and an IC50 (human SPPL2a [2]) of 5 nM.

`C[C@H](CC(=O)Nc1cc(C(=O)NC2CC2)nn1C)C(=O)N[C@@H]1C(=O)N2CCCN2Cc2ccccc21` [Example 102, (R)-N^4-(3-(Cyclopropylcar-bamoyl)-1-methyl-1H-pyrazol-5-yl)-2-methyl-N^1-((S)-11-oxo-2,3,10,11-tetrahydro-1H,5H-benzo[d]pyrazolo [1,2-a][1,2]diazepin-10-yl)succinamide] showed an IC50 (Sppl2a CD74) of 1520 nM, an IC50 (human SPPL2a [1]) of 17 nM and an IC50 (human SPPL2a [2]) of 123 nM.

Compound `C[C@H](CC(=O)Nc1cc(NC(=O)c2cccc(F)c2F)nn1C)C(=O)N[C@@H]1C(=O)N2CCCN2Cc2ccccc21` [Example 76, (R)-N^4-(3-(2,3-Difluorobenzamido)-1-methyl-1 H-pyrazol-5-yl)-2-methyl-N^1-((S)-11-oxo-2,3,10,11-tetrahydro-1H,5H-benzo[d]pyrazolo [1,2-a][1,2]diazepin-10-yl)succinamide] has an IC50 (Sppl2a CD74) of 1690 nM, an IC50 (human SPPL2a [1]) of 5 nM and an IC50 (human SPPL2a [2]) of 7 nM.

In the case of `CC(C)C(=O)Nc1cc(NC(=O)C[C@H](C(=O)N[C@@H]2C(=O)N3CCCN3Cc3ccccc32)C2CCC2)n(C)n1` [Example 63, (S)-2-Cyclobutyl-N^4-(3-isobutyramido-1-methyl-1H-pyrazol-5-yl)-N^1-((S)-11-oxo-2,3,10,11-tetrahydro-1H,5H-benzo[d]pyrazolo [1,2-a][1,2]diazepin-10-yl)succinamide], the IC50 (Sppl2a CD74) is reported as 343 nM, the IC50 (human SPPL2a [1]) is reported as 0.6 nM and the IC50 (human SPPL2a [2]) is reported as 11 nM.

Compound `Cc1nc(C(=O)NCC(F)F)sc1C(=O)NC[C@H](C(=O)N[C@@H]1C(=O)N2CCCN2Cc2ccccc21)C(F)(F)F` [Example 5, N^2-(2,2-Difluoroethyl)-4-methyl-N^5-((R)-3,3,3-trifluoro-2-(((S)-11-oxo-2,3,10,11-tetrahydro-1H,5H-benzo[d]pyrazolo [1,2-a][1,2]diazepin-10-yl)carbamoyl)pro-pyl)thiazole-2,5-dicarboxamide] has an IC50 (Sppl2a CD74) of 225 nM, an IC50 (human SPPL2a [1]) of 2 nM and an IC50 (human SPPL2a [2]) of 2 nM.

Compound `C[C@@H](CF)NC(=O)c1cc(NC(=O)C[C@H](C(=O)N[C@@H]2C(=O)N3CCCN3Cc3c(F)cccc32)C2CC2)n(C)n1` [Example 100, (S)-2-Cyclopropyl-N^1-((S)-6-fluoro-11-oxo-2,3,10,11-tetrahydro-1H,5H-benzo[d]pyrazolo [1,2-a][1,2]diazepin-10-yl)-N^4-(3-(((S)-1-fluoropropan-2-yl)carbamoyl)-1-methyl-1H-pyrazol-5-yl)succinamide] has an IC50 (Sppl2a CD74) of 272 nM, an IC50 (human SPPL2a [1]) of 15 nM and an IC50 (human SPPL2a [2]) of 28 nM.

`Cn1nc(-c2cc(C3CC3)no2)cc1NC(=O)C[C@H](C(=O)N[C@@H]1C(=O)N2CC3(CC3)CN2C(=O)c2ccccc21)C1CC1` [Example 103, (S)-2-Cyclopropyl-N^4-(3-(3-cyclopropylisoxa-zol-5-yl)-1-methyl-1H-pyrazol-5-yl)-N^1-((S)-5,11-dioxo-10,11-dihydro-1H,3H,5H-spiro[benzo[d]pyr-azolo[1,2-a][1,2]diazepine-2,1″- cyclopropan]-10-yl)succinamide] showed an IC50 (Sppl2a CD74) of 1250 nM, an IC50 (human SPPL2a [1]) of 17 nM and an IC50 (human SPPL2a [2]) of 13 nM.

Work on `CC[C@H](CNC(=O)c1onc(C)c1C)C(=O)N[C@@H]1C(=O)N2CCCN2Cc2ccccc21` [Example 25, 3,4-Dimethyl-N-((R)-2-(((S)-11-oxo-2,3,10,11-tetrahydro-1H,5H-benzo[d]pyrazolo [1,2-a][1,2]diazepin-10-yl)carbamoyl)butyl) isoxazole-5-carboxamide] yielded an IC50 (Sppl2a CD74) of 420 nM, an IC50 (human SPPL2a [1]) of 24 nM and an IC50 (human SPPL2a [2]) of 9 nM.

With `Cc1nc(C(=O)NC(C)C)sc1C(=O)NC[C@@H](C)C(=O)N[C@@H]1C(=O)N2CCCN2Cc2ccccc21` [Example 24, N^2-Isopropyl-4-methyl-N^5-((R)-2-methyl-3-oxo-3-(((S)-11-oxo-2,3,10,11-tetrahydro-1H,5H-benzo[d]pyrazolo [1,2-a][1,2]diazepin-10-yl)amino)propyl) thiazole-2,5-dicarboxamide] the IC50 (Sppl2a CD74) was 1660 nM, the IC50 (human SPPL2a [1]) was 21 nM and the IC50 (human SPPL2a [2]) was 33 nM.

With `CC[C@H](CNC(=O)c1sc(C2CC2)nc1C)C(=O)N[C@@H]1C(=O)N2CCCN2Cc2ccccc21` [Example 47, 2-Cyclopropyl-4-methyl-N-((R)-2-(((S)-11-oxo-2,3,10,11-tetrahydro-1H,5H-benzo[d]pyrazolo [1,2-a][1,2]diazepin-10-yl)carbamoyl)butyl) thiazole-5-carboxamide] the IC50 (Sppl2a CD74) was 741 nM, the IC50 (human SPPL2a [1]) was 83 nM and the IC50 (human SPPL2a [2]) was 41 nM.

`C[C@H](CC(=O)Nc1cc(C(=O)NCC(F)F)nn1C)C(=O)N[C@@H]1C(=O)N2CCCN2Cc2ccccc21` [Example 65, (R)-N^4-(3-((2,2-difluoroethyl)car-bamoyl)-1-methyl-1H-pyrazol-5-yl)-2-methyl-N^1-((S)-11-oxo-2,3,10,11-tetrahydro-1H,5H-benzo[d]pyrazolo [1,2-a][1,2]diazepin-10-yl)succinamide] gave an IC50 (Sppl2a CD74) of 519 nM, an IC50 (human SPPL2a [1]) of 1 nM and an IC50 (human SPPL2a [2]) of 14 nM.

`CC[C@H](CNC(=O)c1sc(C2=CCOCC2)nc1C)C(=O)N[C@@H]1C(=O)N2CCCN2Cc2ccccc21` [Example 26, 2-(3,6-Dihydro-2H-pyran-4-yl)-4-methyl-N-((R)-2-(((S)-11-oxo-2,3,10,11-tetrahydro-1H,5H-benzo[d]pyrazolo [1,2-a][1,2]diazepin-10-yl)carbamoyl)butyl) thiazole-5-carboxamide] showed an IC50 (Sppl2a CD74) of 2230 nM, an IC50 (human SPPL2a [1]) of 25 nM and an IC50 (human SPPL2a [2]) of 101 nM.
